#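 Exposure lasted 48 hours, with cells grown in 96-well plates and compounds tested at five concentrations. GI50 is the concentration that inhibits growth by half. TGI is the concentration that stops growth completely.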
# Experiments:
# Assay in all cases: NCI-60 cell line screen, 48 h
# 786-0 renal = system: 786-0 renal
# A498 renal = system: A498 renal
# A549 NSCLC = system: A549 NSCLC
# ACHN renal = system: ACHN renal
# BT-549 breast = system: BT-549 breast
# CAKI-1 renal = system: CAKI-1 renal
# CCRF-CEM leukemia = system: CCRF-CEM leukemia
# COLO 205 colon = system: COLO 205 colon
# DU-145 prostate = system: DU-145 prostate
# EKVX NSCLC = system: EKVX NSCLC
# HCC-2998 colon = system: HCC-2998 colon
# HCT-116 colon = system: HCT-116 colon
# HCT-15 colon = system: HCT-15 colon
# HL-60(TB) leukemia = system: HL-60(TB) leukemia
# HOP-62 NSCLC = system: HOP-62 NSCLC
# HOP-92 NSCLC = system: HOP-92 NSCLC
# HS 578T breast = system: HS 578T breast
# HT29 colon = system: HT29 colon
# IGROV1 ovarian = system: IGROV1 ovarian
# K-562 leukemia = system: K-562 leukemia
# KM12 colon = system: KM12 colon
# LOX IMVI melanoma = system: LOX IMVI melanoma
# M14 melanoma = system: M14 melanoma
# MALME-3M melanoma = system: MALME-3M melanoma
# MCF7 breast = system: MCF7 breast
# MDA-MB-231 breast = system: MDA-MB-231 breast
# MDA-MB-435 = system: MDA-MB-435
# MDA-MB-468 breast = system: MDA-MB-468 breast
# MOLT-4 leukemia = system: MOLT-4 leukemia
# NCI-H226 lung = system: NCI-H226 lung
# NCI-H23 lung = system: NCI-H23 lung
# NCI-H460 lung = system: NCI-H460 lung
# NCI-H522 lung = system: NCI-H522 lung
# NCI/ADR-RES ovarian = system: NCI/ADR-RES ovarian
# OVCAR-3 ovarian = system: OVCAR-3 ovarian
# OVCAR-4 ovarian = system: OVCAR-4 ovarian
# OVCAR-5 ovarian = system: OVCAR-5 ovarian
# OVCAR-8 ovarian = system: OVCAR-8 ovarian
# PC-3 prostate = system: PC-3 prostate
# RXF 393 renal = system: RXF 393 renal
# SF-268 CNS = system: SF-268 CNS
# SF-295 CNS = system: SF-295 CNS
# SF-539 CNS = system: SF-539 CNS
# SK-MEL-2 melanoma = system: SK-MEL-2 melanoma
# SK-MEL-28 melanoma = system: SK-MEL-28 melanoma
# SK-MEL-5 melanoma = system: SK-MEL-5 melanoma
# SK-OV-3 ovarian = system: SK-OV-3 ovarian
# SN12C renal = system: SN12C renal
# SNB-19 CNS = system: SNB-19 CNS
# SNB-75 CNS = system: SNB-75 CNS
# SR leukemia = system: SR leukemia
# SW-620 colon = system: SW-620 colon
# T-47D breast = system: T-47D breast
# TK-10 renal = system: TK-10 renal
# U251 CNS = system: U251 CNS
# UACC-257 melanoma = system: UACC-257 melanoma
# UACC-62 melanoma = system: UACC-62 melanoma
# UO-31 renal = system: UO-31 renal
smiles,measurement,setting,value
CC(=O)Oc1ccccc1C(=O)[Se]C(=NC(C)C)NC(C)C,GI50,786-0 renal,1740 nM
same,TGI,786-0 renal,3210 nM
same,GI50,A498 renal,3340 nM
same,TGI,A498 renal,20600 nM
same,GI50,A549 NSCLC,3080 nM
same,TGI,A549 NSCLC,> 100000 nM
same,GI50,ACHN renal,1760 nM
same,TGI,ACHN renal,3160 nM
same,GI50,BT-549 breast,1520 nM
same,TGI,BT-549 breast,2880 nM
same,GI50,CAKI-1 renal,1680 nM
same,TGI,CAKI-1 renal,3050 nM
same,GI50,CCRF-CEM leukemia,3170 nM
same,TGI,CCRF-CEM leukemia,> 100000 nM
same,GI50,COLO 205 colon,2350 nM
same,TGI,COLO 205 colon,5060 nM
same,GI50,DU-145 prostate,1940 nM
same,TGI,DU-145 prostate,3590 nM
same,GI50,EKVX NSCLC,1670 nM
same,TGI,EKVX NSCLC,3160 nM
same,GI50,HCC-2998 colon,1860 nM
same,TGI,HCC-2998 colon,3430 nM
same,GI50,HCT-116 colon,1600 nM
same,TGI,HCT-116 colon,3140 nM
same,GI50,HCT-15 colon,1840 nM
same,TGI,HCT-15 colon,3690 nM
same,GI50,HL-60(TB) leukemia,2180 nM
same,TGI,HL-60(TB) leukemia,5700 nM
same,GI50,HOP-62 NSCLC,777 nM
same,TGI,HOP-62 NSCLC,2400 nM
same,GI50,HOP-92 NSCLC,1910 nM
same,TGI,HOP-92 NSCLC,4320 nM
same,GI50,HS 578T breast,2400 nM
same,TGI,HS 578T breast,9150 nM
same,GI50,HT29 colon,2310 nM
same,TGI,HT29 colon,5840 nM
same,GI50,IGROV1 ovarian,1720 nM
same,TGI,IGROV1 ovarian,3230 nM
same,GI50,K-562 leukemia,2840 nM
same,TGI,K-562 leukemia,9190 nM
same,GI50,KM12 colon,1900 nM
same,TGI,KM12 colon,3860 nM
same,GI50,LOX IMVI melanoma,1750 nM
same,TGI,LOX IMVI melanoma,3420 nM
same,GI50,M14 melanoma,1840 nM
same,TGI,M14 melanoma,3370 nM
same,GI50,MALME-3M melanoma,1860 nM
same,TGI,MALME-3M melanoma,3450 nM
same,GI50,MCF7 breast,1950 nM
same,TGI,MCF7 breast,4000 nM
same,GI50,MDA-MB-231 breast,2160 nM
same,TGI,MDA-MB-231 breast,4960 nM
same,GI50,MDA-MB-435,1730 nM
same,TGI,MDA-MB-435,3240 nM
same,GI50,MDA-MB-468 breast,1750 nM
same,TGI,MDA-MB-468 breast,3480 nM
same,GI50,MOLT-4 leukemia,2350 nM
same,TGI,MOLT-4 leukemia,6150 nM
same,GI50,NCI-H226 lung,1840 nM
same,TGI,NCI-H226 lung,5700 nM
same,GI50,NCI-H23 lung,1940 nM
same,TGI,NCI-H23 lung,4150 nM
same,GI50,NCI-H460 lung,815 nM
same,TGI,NCI-H460 lung,4390 nM
same,GI50,NCI-H522 lung,1690 nM
same,TGI,NCI-H522 lung,3320 nM
same,GI50,NCI/ADR-RES ovarian,2220 nM
same,TGI,NCI/ADR-RES ovarian,4980 nM
same,GI50,OVCAR-3 ovarian,1900 nM
same,TGI,OVCAR-3 ovarian,3560 nM
same,GI50,OVCAR-4 ovarian,1720 nM
same,TGI,OVCAR-4 ovarian,3130 nM
same,GI50,OVCAR-5 ovarian,1760 nM
same,TGI,OVCAR-5 ovarian,3340 nM
same,GI50,OVCAR-8 ovarian,1870 nM
same,TGI,OVCAR-8 ovarian,3580 nM
same,GI50,PC-3 prostate,1700 nM
same,TGI,PC-3 prostate,3610 nM
same,GI50,RXF 393 renal,1720 nM
same,TGI,RXF 393 renal,3170 nM
same,GI50,SF-268 CNS,2340 nM
same,TGI,SF-268 CNS,6350 nM
same,GI50,SF-295 CNS,369 nM
same,TGI,SF-295 CNS,1630 nM
same,GI50,SF-539 CNS,1750 nM
same,TGI,SF-539 CNS,3150 nM
same,GI50,SK-MEL-2 melanoma,1970 nM
same,TGI,SK-MEL-2 melanoma,4010 nM
same,GI50,SK-MEL-28 melanoma,1790 nM
same,TGI,SK-MEL-28 melanoma,3270 nM
same,GI50,SK-MEL-5 melanoma,1830 nM
same,TGI,SK-MEL-5 melanoma,3510 nM
same,GI50,SK-OV-3 ovarian,1810 nM
same,TGI,SK-OV-3 ovarian,3330 nM
same,GI50,SN12C renal,1720 nM
same,TGI,SN12C renal,3160 nM
same,GI50,SNB-19 CNS,1090 nM
same,TGI,SNB-19 CNS,2370 nM
same,GI50,SNB-75 CNS,1350 nM
same,TGI,SNB-75 CNS,2660 nM
same,GI50,SR leukemia,2110 nM
same,TGI,SR leukemia,5440 nM
same,GI50,SW-620 colon,1920 nM
same,TGI,SW-620 colon,4110 nM
same,GI50,T-47D breast,2200 nM
same,TGI,T-47D breast,5260 nM
same,GI50,TK-10 renal,1630 nM
same,TGI,TK-10 renal,3070 nM
same,GI50,U251 CNS,1530 nM
same,TGI,U251 CNS,3200 nM
same,GI50,UACC-257 melanoma,1960 nM
same,TGI,UACC-257 melanoma,3750 nM
same,GI50,UACC-62 melanoma,1940 nM
same,TGI,UACC-62 melanoma,4150 nM
same,GI50,UO-31 renal,1680 nM
same,TGI,UO-31 renal,3050 nM
